In PubChem BioAssay AID1919001 (Molecular Pharmacology Branch, DTP, NCI, 2023):

System: 699152-130-R-J1-PDC complex spheroid growth
Assay: Anticancer human tumor 699152-130-R-J1-PDC patient-derived pancreatic carcinoma cell line growth inhibition [AhR]
Conditions: for IC50: curve of first compound; for viability, T/C: stronger effect = lower value
Description: Multicellular complex tumor spheroid response to aryl hydrocarbon receptor antagonists in combination with a variety of drugs and investigational agents in selected tumor cell lines
The current study was undertaken to assess response to aryl hydrocarbon receptor antagonists in combination with standard-of-care drugs and investigational agents in solid tumor complex spheroid models. Complex spheroids include a stromal component modeled by human endothelial cells (HUVEC) and fibroblasts modeled by human mesenchymal stem cells (MSCs). The concentration ranges selected for each drug and investigational agent were based upon clinically achievable concentrations if the clinical Cmax of the agent was known.
Compounds. The drugs and investigational agents: BAY 2416964 (NSC825713), GNF351 (NSC835774), CH-223191 (NSC835775), CPI-455 (NSC825282), aza-TdCyd (NSC777586), decitabine (NSC127716), belinostat (NSC758774), entinostat (NSC756642), pevonedistat (NSC761192), tazemetostat (NSC777109), talazoparib (NSC765396), olaparib (NSC753686), selinexor (NSC780203), nedisertib (M3814, NSC802822), bortezomib (NSC756655), venetoclax (NSC766270), doxorubicin (NSC123127), elimusertib (BAY189344, NSC800525), ceralasertib (AZD6738, NSC777638), TAK-243 (NSC785004), alisertib (NSC759677), etoposide (NSC141540), topotecan (NSC609699), eribulin (NSC707389), gemcitabine (NSC613327), carboplatin (NSC241240), cisplatin (NSC119875), and SN-38 (NSC673596) were obtained from the National Cancer Institute (NCI) Developmental Therapeutics Program Chemical Repository (32). The FDA-approved anticancer drug set is available from the Developmental Therapeutics Program at https://dtp.cancer.gov/organization/dscb/obtaining/available plates.htm. […] The stock solutions were prepared in dimethyl sulfoxide (DMSO, Sigma-Aldrich, St. Louis, MO, cat. D2650), except for the platinum compounds which were prepared in saline (Quality Biological, Gaithersburg, MD, cat. 114-055-101), at 800-fold the tested concentration and stored at -70 degrees C prior to their use. All drugs and investigational agents were tested over a range starting from a high concentration at or near the clinical Cmax and decreasing in half-log increments. If the clinical Cmax for an agent had not been determined, the highest concentration tested was 10 microM (Table 1).
Cell Culture. All cells were maintained in an incubator at 37 degrees C and 5% CO2 with 95% humidity. The PDC lines were cultured according to standard operating procedures established by the NCI PDMR (https://pdmr.cancer.gov). Briefly, all PDCs were thawed and cultured in Matrigel-coated flasks prepared with a working solution of 1X Ham's F-12 nutrient mix, without supplementation (Invitrogen, Waltham, MA, cat. 11765054), 100 U/mL penicillin-streptomycin (Invitrogen, cat. 15140122), and 2.5% Matrigel (Corning Inc., Corning, NY, cat. 354248) for the first three passages. All PDCs were cultured in complete DMEM/F-12 media containing advanced DMEM/F-12 (Invitrogen, cat. 12634028), 4.9% defined fetal bovine serum, heat inactivated (HyClone Laboratories Inc., Logan, UT, cat. SH30070.03HI), 389 ng/mL hydrocortisone (Sigma-Aldrich, cat. H4001), 9.7 ng/mL human EGF recombinant protein (Invitrogen, cat. PHG0313), 23.4 microg/mL adenine (Sigma-Aldrich, cat. A2786), 97.3 U/mL penicillin-streptomycin (Invitrogen, cat. 15140122), 1.9 mM L-glutamine (Invitrogen, cat. 25030081), and 9.7 microM Y-27632 dihydrochloride (Tocris Bioscience, Bristol, United Kingdom, cat. 1254). The PDCs were cultured in complete DMEM/F12 media without 10 microM Y-27632 dihydrochloride for at least two passages prior to the screen. The established cell lines NCI-H1341 and […] were cultured in DMEM/F-12, HEPES (Invitrogen, cat. 11330032), 5% defined fetal bovine serum (HyClone Laboratories Inc., cat. SH30070.03), ITS premix universal culture supplement [insulin (5 microg/mL), transferrin (5 microg/mL), and selenious acid (5 ng/mL)] […]
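Further: compound exposure lasted 7 days after spheroids had grown for 3 days.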

With `CCc1c2c(nc3ccc(O)cc13)-c1cc3c(c(=O)n1C2)COC(=O)[C@]3(O)CC` + CC(CO)NC(=O)c1cc(-c2ccc(Cl)cc2)nn(-c2cnn(C)c2)c1=O the IC50 (second compound 0.1 µM) was 18.2 nM, the IC50 (second compound 0.316 µM) was 26.4 nM and the IC50 (second compound 1 µM) was 42.1 nM. For the same molecule, the IC50 (second compound 3.16 µM) was 22.1 nM, the IC50 (second compound 10 µM) was 47.3 nM and the viability, T/C (second compound 0.1 µM, first compound 0.000949 µM) was 89%. For the same molecule, the viability, T/C (second compound 0.1 µM, first compound 0.003 µM) was 83.5%, the viability, T/C (second compound 0.1 µM, first compound 0.00949 µM) was 56.5% and the viability, T/C (second compound 0.1 µM, first compound 0.03 µM) was 46.2%. It also gave a viability, T/C (second compound 0.1 µM, first compound 0.0949 µM) of 48%, a viability, T/C (second compound 0.1 µM, first compound 0.3 µM) of 35.7% and a viability, T/C (second compound 0.316 µM, first compound 0.000949 µM) of 83.3%. It also gave a viability, T/C (second compound 0.316 µM, first compound 0.003 µM) of 75.5%, a viability, T/C (second compound 0.316 µM, first compound 0.00949 µM) of 58.9% and a viability, T/C (second compound 0.316 µM, first compound 0.03 µM) of 49.4%. It also gave a viability, T/C (second compound 0.316 µM, first compound 0.0949 µM) of 44.8%, a viability, T/C (second compound 0.316 µM, first compound 0.3 µM) of 41.3% and a viability, T/C (second compound 1 µM, first compound 0.000949 µM) of 85.7%. It also gave a viability, T/C (second compound 1 µM, first compound 0.003 µM) of 75.4%, a viability, T/C (second compound 1 µM, first compound 0.00949 µM) of 61.3% and a viability, T/C (second compound 1 µM, first compound 0.03 µM) of 51.4%. The viability, T/C (second compound 1 µM, first compound 0.0949 µM) was 47.2%, the viability, T/C (second compound 1 µM, first compound 0.3 µM) was 41.5% and the viability, T/C (second compound 3.16 µM, first compound 0.000949 µM) was 72.3%. It also gave a viability, T/C (second compound 3.16 µM, first compound 0.003 µM) of 64.4%, a viability, T/C (second compound 3.16 µM, first compound 0.00949 µM) of 57.2% and a viability, T/C (second compound 3.16 µM, first compound 0.03 µM) of 45.3%. For the same molecule, the viability, T/C (second compound 3.16 µM, first compound 0.0949 µM) was 42%, the viability, T/C (second compound 3.16 µM, first compound 0.3 µM) was 31.4% and the viability, T/C (second compound 10 µM, first compound 0.000949 µM) was 71.9%. The viability, T/C (second compound 10 µM, first compound 0.003 µM) was 69.4%, the viability, T/C (second compound 10 µM, first compound 0.00949 µM) was 61.7% and the viability, T/C (second compound 10 µM, first compound 0.03 µM) was 52.6%. For the same molecule, the viability, T/C (second compound 10 µM, first compound 0.0949 µM) was 45.9% and the viability, T/C (second compound 10 µM, first compound 0.3 µM) was 28.4%.
